Laboratory results taken from PubChem BioAssay (NCI).
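Tested at 5 concentrations; 48 h exposure; 96-well plates; endpoints linearly interpolated, else capped at highest concentration. Definition used: TGI = concentration required for complete inhibition of growth.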 Where a SMILES comes first, the peptide text is derived from it. The star is where a group is joined. Boc = CC(C)(C)OC(=O)*; OBn = c1ccc(CO*)cc1

Key:
Test in all cases: NCI tumour cell line growth inhibition, 48 h
A549 NSCLC = system: A549 NSCLC
SF-539 CNS = system: SF-539 CNS
DLD-1 colon = system: DLD-1 colon
DMS 114 small cell lung = system: DMS 114 small cell lung
DMS 273 small cell lung = system: DMS 273 small cell lung
HOP-18 NSCLC = system: HOP-18 NSCLC
KM20L2 colon = system: KM20L2 colon
M19-MEL melanoma = system: M19-MEL melanoma
P388 leukemia = system: P388 leukemia
P388/ADR leukemia = system: P388/ADR leukemia
SN12K1 renal = system: SN12K1 renal
SNB-78 CNS = system: SNB-78 CNS
XF 498 CNS = system: XF 498 CNS
LXFL 529 NSCLC = system: LXFL 529 NSCLC
RXF-631 renal = system: RXF-631 renal

| Structure (SMILES) | TGI (A549 NSCLC) [µM] | TGI (SF-539 CNS) [µM] | also measured |
| --- | --- | --- | --- |
| Cc1c(C)c2c(c(N)c1C#N)C(=O)N(CCc1ccccc1)C2=O | > 100 | > 100 | – |
| Cc1ccc2c(c1)C(=O)/C(=N/Nc1ccc(Cl)cc1)CCO2 | > 100 | > 100 | – |
| COc1cc(OCc2ccc3nc(-c4ccccc4)c(Cl)nc3c2)cc(OC)c1OC | > 100 | > 100 | – |
| Cc1ccc(-n2cnc3c(N)nc(N)nc32)cc1 | > 100 | > 100 | – |
| COC(=O)Nc1nc2ccc(S(=O)(=O)NC(CC(C)C)C(=O)OC)cc2[nH]1 (configuration not stated) | > 100 | 38.3 | – |
| Cc1oc2c(c1C)S(=O)(=O)C(C#N)=C(c1ccccc1)N2 | > 100 | > 100 | – |
| COC(=O)C1=C(O)C(C(=O)OC)[C@]2(O)[C@H](C(=O)OC)[C@H]1C[C@@H](c1ccc(F)cc1)[C@H]2C(=O)OC (some centres not stated) | > 100 | 41 | – |
| C=C1C(=O)C23CC1C[C@H](OC(C)=O)[C@H]2C1(C)C(OC(C)=O)C[C@H](O)C(C)(C)[C@H]1C(=O)[C@@H]3OC(C)=O (some centres not stated) | 33.7 | 6.47 | – |
| O=C1c2ccccc2C(O)(C(=O)O)C1(O)CC=C(Cl)Cl (configuration not stated) | > 125 | > 125 | TGI (DLD-1 colon): > 125 µM; TGI (DMS 114 small cell lung): > 125 µM; TGI (DMS 273 small cell lung): > 125 µM; TGI (HOP-18 NSCLC): > 125 µM; TGI (KM20L2 colon): > 125 µM; TGI (M19-MEL melanoma): > 125 µM; TGI (P388 leukemia): > 125 µM; TGI (P388/ADR leukemia): > 70.3 µM; TGI (SN12K1 renal): > 125 µM; TGI (SNB-78 CNS): > 125 µM; TGI (XF 498 CNS): > 125 µM |
| O=C1NC(=O)C(Cc2ccccc2)(c2cccnc2)N1 (configuration not stated) | > 100 | > 100 | – |
| O=C(O)c1ccc(P(=O)(O)c2ccc(C(=O)O)cc2Br)c(Br)c1 | > 100 | > 100 | – |
| O=C(c1cc(Cl)cc(Cl)c1)N(C(=O)N1CCN(c2ccccc2)CC1)c1ccccc1 | > 100 | > 100 | – |
| CCN(CC)C(=C(C(Cl)=C(Cl)Cl)[N+](=O)[O-])N(CC)CC | > 100 | > 100 | – |
| CC(=O)Oc1cc2c(n(C)c1=O)-c1ccccc1C2 | > 100 | – | – |
| O=C(N/N=C/c1ccc2c(c1)OCO2)Nc1ccccc1Cl | > 100 | 24.8 | – |
| COc1ccc2cc(CNCCCCCCCCCCCCNCc3ccc4cc(OC)ccc4c3)ccc2c1 | > 54.8 | 31.8 | – |
| COc1cc2c[n+](C)c3c4cc5c(cc4ccc3c2cc1OC)OCO5 | 0.756 | 5.32 | TGI (DLD-1 colon): > 31.6 µM; TGI (DMS 114 small cell lung): 5.92 µM; TGI (DMS 273 small cell lung): 11.6 µM; TGI (HOP-18 NSCLC): 93.6 µM; TGI (KM20L2 colon): 3.47 µM; TGI (LXFL 529 NSCLC): 4.67 µM; TGI (M19-MEL melanoma): 2.9 µM; TGI (RXF-631 renal): > 100 µM; TGI (SNB-78 CNS): > 25.9 µM; TGI (XF 498 CNS): 9.95 µM |
| COc1ccc(OC)c2sc(N3C(=O)/C(=C/c4ccc(Cl)cc4)N=C3c3ccccc3)nc12 | > 100 | > 100 | – |

| Structure (SMILES) | TGI (A549 NSCLC) [µM] | TGI (SF-539 CNS) [µM] | also measured |
| --- | --- | --- | --- |
| O=c1[nH]c(C23CC4CC(CC(C4)C2)C3)cc2c1c(=O)oc1ccccc12 | 9.71 | 17.4 | – |
| COc1cc(OCc2nc3ccccc3n3cccc23)cc(OC)c1OC | > 100 | > 100 | – |
| O=C(c1ccccc1)c1ccc2nc3n(c2c1)C(c1c(F)cccc1F)SC3 (configuration not stated) | > 84.8 | > 47.8 | – |
| CCOC(=O)CCC(NC(=O)c1ccc(CNc2nc3ccccc3nc2C(=O)OCC)cc1)C(=O)OCC (configuration not stated) | > 100 | – | – |
| Ic1ncnc2c1ncn2C1CCCO1 (configuration not stated) | > 100 | > 100 | TGI (DLD-1 colon): > 100 µM; TGI (DMS 114 small cell lung): > 100 µM; TGI (DMS 273 small cell lung): > 100 µM; TGI (HOP-18 NSCLC): > 100 µM; TGI (KM20L2 colon): > 100 µM; TGI (M19-MEL melanoma): > 100 µM; TGI (SNB-78 CNS): > 100 µM; TGI (XF 498 CNS): > 100 µM |
| COc1ccc2cc(Oc3ccc(Cl)cc3)c(=O)oc2c1 | > 100 | > 100 | – |
| O=c1[nH]n(Cc2ccccc2Cl)c2ccc([N+](=O)[O-])cc12 | > 100 | > 100 | – |
| CNc1c2cccc(C)c2nc2c(C(=O)NCCN(C)C)cccc12 | 0.331 | 0.245 | – |
| CC(C)C(NC(=O)C(Cc1ccccc1)NC(=O)OC(C)(C)C)C(=O)NCC(=O)OCc1ccccc1 (stereo not drawn) (Boc-Phe-Val-Gly-OBn; configuration not given here) | – | 43.3 | – |
| CC1(C)CN=C(c2ccc3c(c2)Cc2cc(C4=NCC(C)(C)N4)ccc2-3)N1 | > 100 | – | – |
| CC(C)=CCC[C@@H](C)C1=C(O)C(O)C(C)=C2N=C(c3ccccc3)C(=O)OC21 (some centres not stated) | > 23 | 13.8 | – |
| CC(=O)O[C@@H]1CC[C@@]2(C)C(CC[C@H]3[C@@H]4CC[C@H]([C@H](C)CCc5nc6ccc(C)cc6[nH]5)[C@@]4(C)CC[C@@H]32)C1 (some centres not stated) | > 100 | > 100 | – |
| OC1(CCc2ccccc2)COC(C(F)(F)F)(C(F)(F)F)C1 (configuration not stated) | > 100 | > 100 | – |
| O=C1C(=O)c2c(oc(=O)c3ccccc23)-c2ccccc21 | > 25 | > 25 | – |
| CC1=NN(C(=O)CC(=O)Nc2ccc(C)cc2)C(=O)C1N=Nc1ccc(C(=O)O)cc1 (configuration not stated) | > 100 | > 100 | – |
| CCC(C)C(C(=O)N/N=C1/SCC(=O)N1c1ccccc1)C(=O)N/N=C1/SCC(=O)N1c1ccccc1 (configuration not stated) | > 100 | > 100 | – |
| CO[C@H]1c2cccc3cccc(c23)[C@@H]1n1[nH]c(=O)n(C(C)(C)C)c1=O | > 100 | > 100 | – |
| Cc1csc2nc3c(cnn3C)c(=S)n12 | > 100 | > 100 | – |
